Values joined by “and” are separate entries in the source; they are usually repeats but may differ in a detail not shown here. Equal entries are not always repeated.
Target: T1, COX2 (Homo sapiens, UniProt P35354)
T1 sequence (P35354 18-604): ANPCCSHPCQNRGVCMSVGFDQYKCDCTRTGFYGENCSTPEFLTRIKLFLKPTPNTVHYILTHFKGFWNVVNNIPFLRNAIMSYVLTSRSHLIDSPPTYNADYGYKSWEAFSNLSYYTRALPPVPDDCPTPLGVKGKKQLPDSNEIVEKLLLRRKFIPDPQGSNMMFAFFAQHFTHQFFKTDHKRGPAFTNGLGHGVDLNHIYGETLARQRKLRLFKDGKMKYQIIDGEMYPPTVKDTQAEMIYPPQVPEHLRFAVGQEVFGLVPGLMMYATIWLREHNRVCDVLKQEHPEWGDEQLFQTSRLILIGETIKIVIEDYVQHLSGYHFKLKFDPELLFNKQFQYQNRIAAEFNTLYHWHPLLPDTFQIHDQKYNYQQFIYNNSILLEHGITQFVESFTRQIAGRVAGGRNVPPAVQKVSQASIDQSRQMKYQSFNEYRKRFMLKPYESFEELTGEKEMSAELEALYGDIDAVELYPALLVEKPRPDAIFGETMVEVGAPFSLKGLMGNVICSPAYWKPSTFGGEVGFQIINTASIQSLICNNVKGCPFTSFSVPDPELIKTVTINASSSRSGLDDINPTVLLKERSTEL
Test: lipid mediator and SPM biosynthesis by recombinant COX2 with 5-LOX (LC-MS/MS)
Assay type: biochemical
Set-up: purchased Cayman 60122
Conditions: for 11-HETE, Product (%) / 15-HETE, Product (%) / 15R-LXA4, Product (%) / PGH2, Product (%): AA; for 11-HETE, Product (%) / 15-HETE, Product (%) / 15R-LXA4, Product (%) / PGH2, Product (%) / 13-HDHA, Product (%) / 17-HDHA, Product (%) / RvD1, Product (%) / 11-HEPE, Product (%) / 15-HEPE, Product (%) / 18-HEPE, Product (%) / RvE1, Product (%): acetylated huCOX2, mean±s.e.m., n=6; for 15R-LxA4 quantification (Fig 2c) / RvD1 quantification (Fig 2c) / RvE1 quantification (Fig 2c): Control COX2 + 5-LOX, replicates; for 13-HDHA, Product (%) / 17-HDHA, Product (%) / RvD1, Product (%): DHA; for 11-HEPE, Product (%) / 15-HEPE, Product (%) / 18-HEPE, Product (%) / RvE1, Product (%): EPA
Procedure: Lipid mediators metabololipidomics were performed according to previously described procedures with minor modifications[4],[30]. To confirm the biosynthesis of lipid mediators by recombinant COX2 treated with N-AS or aspirin, 10 U of human recombinant COX2 (Cayman, 60122) was incubated in the presence of 500 μM aspirin (Sigma-Aldrich, A5376) or N-AS (Sigma-Aldrich, 01912) at 37 °C for 30 min. The enzyme was filtered with a Microcon column (Millipore) to remove unreacted aspirin or N-AS and was then resuspended in 0.1 M Tris-HCl (pH 8.0). Next, 500 μM phenol (Sigma-Aldrich) and 1 μM hematin-porcine (Sigma-Aldrich) were added immediately before incubation with 100 μM AA, EPA or DHA (Cayman) at 37 °C for 2 h, respectively. The mixtures were incubated with 30 U of human 5-LOX (Cayman, 60402) containing 2 mM CaCl2 (Sigma-Aldrich), 1 mM ATP (Amresco) and 5 μM 13-HpODE (Cayman) as activators. Also, to validate the importance of residue S565 for N-AS-acetylation of COX2 and production of SPMs, 10 U of the COX2 S565A mutant was used in the above-described method. In addition, to confirm SPM generation in neurons and microglia, these cells were treated with Aβ and sonicated in neuronal and glial culture medium. […] To evaluate the relationship of N-AS and SPM production in microglia, microglia were isolated from WT, APP/PS1, and APP/PS1 treated with N-AS mice at 9 months of age. The microglia were sonicated and resuspended in microglial culture medium. The supernatants were incubated with 100 μM AA, EPA, and DHA (Cayman) at 37 °C for 2 h. A 50 μl aliquot of the mixture from each cell lysate was added to a 250 μl aliquot of 1 ng ml^−1 of 15S-LXA4-d5 (internal standard, Cayman) methanol solution. After vortexing for 10 min and centrifuging at 15,974×g for 5 min, the supernatant was subjected to the analysis of the lipid mediators using an Agilent 6470 Triple Quad LC-MS/MS system (Agilent) coupled to an Agilent 1290 HPLC system. Chromatographic separation was achieved using a Synergi Polar RP (4 μm, 2.0 mm i.d. × 150 mm, Phenomenex). Analytes were eluted with a mobile phase consisting of water: formic acid (100:0.1 v/v) (phase A) and methanol: formic acid (100:0.1 v/v) (phase B) in gradient elution mode for 23 min a flow rate of 0.2 ml min^−1. The elution gradient was as follows: from 0 to 0.1 min the content of phase A was 37% and the content of phase A was decreased to 10% and maintained for 5.5 min. The content of phase A was increased back to 37% at 6.0 min and maintained for 23 min. Quantification was carried out using MRM in negative ionization mode and collision energy of 10–15 eV. The mass transition from Q1 to Q3 is shown in Supplementary Table 2. In this study, the peak areas for all components were automatically integrated using MassHunter B 06.00.

Structure (SMILES): CC(=O)Oc1ccccc1C(=O)O [Aspirin, acetylsalicylic acid, reference compound]
- 11-HETE, Product (%): 13.8±0.41%
- 15-HETE, Product (%): 9.5±0.22%
- 15R-LXA4, Product (%): 4.2±0.18%
- PGH2, Product (%): 72.3±0.68%
- 15R-LxA4 quantification (Fig 2c): 8734.32 and 9047.96 and 8672.38 and 8679.89 and 12017 and 8786.05 and 9112.59
- RvD1 quantification (Fig 2c): 529.99 and 519.44 and 632.8 and 532.11 and 521.52
- RvE1 quantification (Fig 2c): 3237.03 and 3196.43 and 4589.07 and 4937.89 and 3246.64 and 3210.17
- 13-HDHA, Product (%): 5.0±0.15%
- 17-HDHA, Product (%): 94.6±0.22%
- RvD1, Product (%): 0.4±0.01%
- 11-HEPE, Product (%): 27.3±1.40%
- 15-HEPE, Product (%): 5.8±0.06%
- 18-HEPE, Product (%): 61.3±0.32%
- RvE1, Product (%): 3.1±0.25%

Structure (SMILES): CCCCCCCCCCCCC/C=C/[C@@H](O)[C@H](CO)NC(C)=O [N-AS, N-((2S,3R,E)-1,3-Dihydroxyoctadec-4-en-2-yl)acetamide]
- 11-HETE, Product (%): 13.1±0.55%
- 15-HETE, Product (%): 13.3±0.59%
- 15R-LXA4, Product (%): 4.8±0.23%
- PGH2, Product (%): 69.7±1.08%
- 15R-LxA4 quantification (Fig 2c): 10460.6 and 9709.13 and 8768.93 and 9235.99 and 8577.96 and 10535.3
- RvD1 quantification (Fig 2c): 670.43 and 829.94 and 668.56 and 744.28 and 781.34 and 739.49 and 733.66
- RvE1 quantification (Fig 2c): 4023.99 and 3322.2 and 4006.77 and 4517.41 and 3768.91 and 4998.35 and 3336.48
- 13-HDHA, Product (%): 3.6±0.09%
- 17-HDHA, Product (%): 95.8±0.19%
- RvD1, Product (%): 0.53±0.09%
- 11-HEPE, Product (%): 26.8±0.41%
- 15-HEPE, Product (%): 5.8±0.09%
- 18-HEPE, Product (%): 64.0±0.25%
- RvE1, Product (%): 3.3±0.09%
